The values below come from US20150346214A1, “DETECTION OF MEMBRANE PROTEINS” (priority 2012, published 2015).

“Also recorded” adds a separate entry of the source.

The target of the test is T1, mechanosensitive channel of large conductance (MscL) (Mycobacterium tuberculosis, UniProt P9WJN5).
T1 sequence (P9WJN5 1-151): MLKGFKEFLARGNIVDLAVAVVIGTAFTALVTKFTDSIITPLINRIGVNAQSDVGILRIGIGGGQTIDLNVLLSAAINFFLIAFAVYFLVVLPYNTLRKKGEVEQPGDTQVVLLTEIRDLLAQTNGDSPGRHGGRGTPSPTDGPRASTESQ
Briefly: Gas-phase (collision-induced) unfolding IM-MS: stabilisation of MscL by bound phospholipid. As to conditions: +12 charge state, versus apo form. Type of test: binding.

Take `CCCCCCCC/C=C\CCCCCCCC(=O)OC[C@H](COP(=O)(O)O[C@H]1C(O)C(O)C(O)[C@@H](OP(=O)(O)O)C1O)OC(=O)CCCCCCC/C=C\CCCCCCCC` (stereo partly shown) [PI]: the “average stabilisation of MscL by bound phospholipid (resistance to gas-phase unfolding)” value is listed as “large increase in stability when binding multiple lipids, greater than all other phospholipids investigated; also recorded: Major cumulative effects on stability”.
